# Earlier results in US20090082464A1, “EXTERNALLY MASKED NEOPENTYL SULFONYL ESTER CYCLIZATION RELEASE PRODRUGS OF ACAMPROSATE, COMPOSITIONS THEREOF, AND METHODS OF USE” (priority 2007, published 2009).
# How the values were obtained:
# cocaine conditioned mice = conditions: 100 mg/kg for 3 days
smiles,measurement,setting,value
"CC(=O)NCCCS(=O)(=O)O [acamprosate, 3-(Acetylamino)propylsulfonic acid]",relapse-like behavior,cocaine conditioned mice,attenuated relapse-like behavior
same,steady-state plasma concentration,doses of about 1-2 gm per day,370 to 640 ng/mL
same,time post-dose at which steady-state plasma concentration occurs,doses of about 1-2 gm per day,3 to 8 h
same,oral bioavailability of acamprosate,"humans, oral",about 11%
